Measurements reported in ChEMBL document CHEMBL1201862, “PubChem BioAssay data set” (2004).
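1) Cells in 96-well plates. 2) Compound, 48 h, 5 concentrations. 3) Linear interpolation between surrounding doses. 4) Unreached endpoint = highest concentration. At the GI50, growth is halved.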 Activity calls are given as the source filed them. Cut-off read from the data, not from the text of the source: active = GI50 up to about 1.1 µM and inactive = higher.

Key:
Assay in all cases: inhibition of tumour cell growth, NCI panel, 48 h
[1] = system: 786-0
[2] = system: A549
[3] = system: HL-60
[4] = system: HOP-92
[5] = system: HT-29
[6] = system: K562
[7] = system: MOLT-4
[8] = system: NCI-H460
[9] = system: OVCAR-8
[10] = system: SF-295
[11] = system: SF-539
[12] = system: SK-MEL-28
[13] = system: SN12C
[14] = system: SW-620
[15] = system: TK-10
[16] = system: UACC-62
[17] = system: A498

Measured: GI50

OC(c1cc2ccccc2[nH]1)C(O)(c1cc2ccccc2[nH]1)c1cc2ccccc2[nH]1 (configuration not stated)
inactive: [1] 6.89 µM | [2] 12.6 µM | [3] 7.91 µM | [4] 14.9 µM | [5] 9.18 µM | [6] 10.9 µM | [7] 8.07 µM | [8] 14.4 µM | [9] 15.9 µM | [10] 7.23 µM | [11] 41.4 µM | [12] 19.1 µM | [13] 5.53 µM | [14] 10.1 µM | [15] 40.1 µM | [16] 5.97 µM

N=C(N)SCc1cn2ccccc2n1
inactive: [1] > 100 µM | [2] > 100 µM | [3] > 100 µM | [5] > 100 µM | [6] > 100 µM | [7] > 100 µM | [8] > 100 µM | [9] > 100 µM | [10] > 100 µM | [11] > 100 µM | [12] > 100 µM | [13] > 100 µM | [14] > 100 µM | [15] > 100 µM

COc1cc2cc(OC(C)=O)c3cc4c(cc3c2c(OC)c1OC)OCO4
inactive: [1] > 100 µM | [17] > 100 µM | [2] > 100 µM | [3] > 100 µM | [5] > 100 µM | [6] > 100 µM | [7] > 100 µM | [8] > 100 µM | [9] > 100 µM | [10] > 100 µM | [11] > 100 µM | [12] > 100 µM | [13] > 100 µM | [14] > 100 µM | [15] > 100 µM

CC1(C=O)C(=O)CCC2(C)C3CC(=O)OC3CCC12 (configuration not stated)
inactive: [1] > 100 µM | [2] > 100 µM | [3] > 100 µM | [4] > 100 µM | [5] > 100 µM | [6] > 100 µM | [7] > 100 µM | [8] > 100 µM | [9] > 100 µM | [10] > 100 µM | [11] > 100 µM | [12] > 100 µM | [13] > 100 µM | [14] > 100 µM | [15] > 100 µM | [16] > 100 µM

O=C(O)c1ccc(C2COc3ccc(Cl)cc3C2)cc1 (configuration not stated)
inactive: [1] > 100 µM | [17] > 100 µM | [2] > 100 µM | [3] > 100 µM | [4] > 100 µM | [5] > 100 µM | [6] > 100 µM | [7] > 100 µM | [8] > 100 µM | [9] > 100 µM | [10] > 100 µM | [11] > 100 µM | [12] > 100 µM | [13] > 100 µM | [14] > 100 µM | [15] > 100 µM | [16] > 100 µM

CC1=N/C(=C\c2ccc(N)cc2)C(=O)N1Nc1nnc(NN2C(=O)/C(=C/c3ccc(N)cc3)N=C2C)c2ccccc12
inactive: [1] 32.5 µM | [17] > 100 µM | [2] > 100 µM | [3] 22.1 µM | [4] > 100 µM | [5] > 100 µM | [6] 27.4 µM | [7] 35.2 µM | [8] > 100 µM | [9] > 100 µM | [10] 26.6 µM | [11] 24.8 µM | [12] > 100 µM | [13] 96.2 µM | [14] 83.9 µM | [16] 54.5 µM

O=C1/C(=C/c2ccc(Br)cc2)CCC/C1=C\c1ccc(Br)cc1
inactive: [1] 11.9 µM | [17] 5.32 µM | [2] 12.4 µM | [3] 3.18 µM | [5] 1.88 µM | [6] 4.31 µM | [7] 7.11 µM | [8] 10.5 µM | [9] 3.95 µM | [11] 16 µM | [12] 2.12 µM | [13] 19.7 µM | [14] 5.13 µM | [15] 27.5 µM | [16] 15.1 µM

CCC(=O)N1C(=S)SC[C@H]1C(=O)OC
inactive: [1] > 100 µM | [17] > 100 µM | [2] > 100 µM | [3] > 100 µM | [4] > 100 µM | [5] > 100 µM | [6] > 100 µM | [7] > 100 µM | [9] > 100 µM | [10] > 100 µM | [11] > 100 µM | [12] > 100 µM | [13] > 100 µM | [14] > 100 µM | [15] > 100 µM | [16] > 100 µM

CCOC(=O)C(=O)Nc1ccc(C)c(C)c1
inactive: [1] > 100 µM | [17] > 100 µM | [2] > 100 µM | [3] > 54.8 µM | [5] > 56.2 µM | [6] > 73.1 µM | [7] > 100 µM | [8] > 60.4 µM | [10] > 100 µM | [11] > 100 µM | [12] > 100 µM | [13] > 100 µM | [14] 5.81 µM | [15] > 100 µM | [16] > 100 µM

CN(C)CCNC(=O)c1cccc2ncc(-c3ccccc3)nc12
inactive: [1] 10 µM | [17] 6.15 µM | [2] 6.9 µM | [3] 14.4 µM | [4] 18.7 µM | [5] 6.17 µM | [6] 9.02 µM | [7] 2.52 µM | [8] 4.41 µM | [9] 7.52 µM | [10] 14.2 µM | [11] 4.51 µM | [12] 18.2 µM | [13] 6.14 µM | [14] 5.31 µM | [15] 6.93 µM | [16] 13.8 µM

CCC1(c2ccncc2)CCC(=O)NC1=O (configuration not stated) [ROGLETIMIDE]
inactive: [1] > 100 µM | [17] > 100 µM | [2] > 100 µM | [3] > 100 µM | [4] 52.4 µM | [5] > 100 µM | [6] > 100 µM | [7] > 100 µM | [8] > 100 µM | [9] > 100 µM | [10] > 100 µM | [11] > 100 µM | [12] > 100 µM | [13] > 100 µM | [14] > 100 µM | [15] > 100 µM | [16] > 100 µM

CC1C2CC=CC(=O)[C@@]2(C)CCC12OCCO2 (some centres not stated)
inactive: [1] > 100 µM | [17] > 100 µM | [2] > 100 µM | [3] > 10 µM | [4] > 100 µM | [5] > 100 µM | [6] > 100 µM | [7] > 100 µM | [8] > 100 µM | [9] > 100 µM | [10] > 100 µM | [11] > 100 µM | [12] > 100 µM | [13] > 100 µM | [14] > 100 µM | [15] > 100 µM | [16] > 100 µM

O=C(CCn1[nH]c(=O)c(Cl)c(Cl)c1=O)NOCCCc1ccccc1
inactive: [1] > 100 µM | [17] > 100 µM | [2] > 100 µM | [3] > 100 µM | [4] > 100 µM | [5] > 100 µM | [6] > 100 µM | [7] > 100 µM | [8] > 100 µM | [9] > 100 µM | [10] > 100 µM | [11] > 100 µM | [12] > 100 µM | [13] > 100 µM | [14] > 100 µM | [15] > 100 µM | [16] > 100 µM

COC(=O)C1C(=O)CC2CCCCC21 (configuration not stated)
inactive: [1] > 100 µM | [17] > 100 µM | [2] > 100 µM | [3] > 100 µM | [6] > 100 µM | [7] > 100 µM | [8] > 100 µM | [11] > 100 µM | [12] > 100 µM | [13] > 100 µM | [14] > 100 µM | [15] > 100 µM | [16] > 100 µM

NCCCCCCNCc1cccc2ccccc12
inactive: [1] > 100 µM | [2] > 100 µM | [3] 54.2 µM | [5] 38.3 µM | [6] 19.8 µM | [7] 40.8 µM | [8] > 100 µM | [9] > 100 µM | [10] > 100 µM | [11] 40.6 µM | [12] 65.2 µM | [13] > 100 µM | [14] 85.5 µM | [15] > 100 µM | [16] > 100 µM

CCOP1(=O)C=C(C)C(Cl)=C(C)C1 (configuration not stated)
inactive: [1] 28.3 µM | [2] 21.1 µM | [3] 19.1 µM | [4] 19.6 µM | [5] 24.5 µM | [6] 23.4 µM | [7] 20.4 µM | [8] 39.2 µM | [9] 30 µM | [10] 47.1 µM | [11] 23.1 µM | [12] 17.3 µM | [13] 21 µM | [14] 21.1 µM | [15] 41.4 µM | [16] 14.9 µM

COc1c(C)c(O)c2c(=O)cc(-c3ccccc3)oc2c1C
inactive: [1] > 100 µM | [17] > 100 µM | [2] > 100 µM | [4] > 100 µM | [5] > 100 µM | [6] > 100 µM | [7] > 100 µM | [8] > 100 µM | [9] > 100 µM | [10] > 100 µM | [11] > 100 µM | [12] > 100 µM | [13] > 100 µM | [14] > 100 µM | [15] > 100 µM | [16] > 100 µM

CCCCCCCCCCCCCCCC(=O)OCCOCCOCCOCc1ccccc1
inactive: [1] > 100 µM | [17] > 100 µM | [2] > 100 µM | [4] 21.1 µM | [5] > 100 µM | [8] > 100 µM | [9] > 100 µM | [10] 26 µM | [11] > 100 µM | [12] > 100 µM | [13] > 100 µM | [14] > 100 µM | [15] > 100 µM | [16] 36.1 µM
